# Assay results reported in US9028845B2, “Chimeric immunomodulatory compounds and methods of using the same-IV” (Dynavax Technologies Corporation, priority 2001, dated 2015).
# Experiments:
# CD19+ B cells = experiment: Human B cell proliferation assay (3H-thymidine incorporation); conditions: 2 μg/ml
# human PBMCs = experiment: Human PBMC cytokine response assay (IFN-γ and IFN-α in cell-free medium by ELISA), with or without cPLGA; type: cell-based;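 as to IFN-α (pg/ml) mean: 20 µg/mL compound for 24 hours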;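 as to IFN-γ (pg/ml) mean: 20 µg/mL compound for 24 hours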
# PBMCs = experiment: Human PBMC proliferation assay (3H-thymidine incorporation); type: cell-based; conditions: Experiment A; for mean cpm: 2 μg/ml
# [1] = B cells, Donor 146, Experiment A
# [2] = B cells, Donor 147, Experiment A
# [3] = Table 24, mean of donors 28234-28237
# [4] = Table 25, mean of donors 28250-28253
# [5] = donor 28066, 20 ug/ml, 24 h, + PLGA = premixed with 100 μg/ml cPLGA
# [6] = donor 28067, 20 ug/ml, 24 h, + PLGA = premixed with 100 μg/ml cPLGA
# [7] = donor 28068, 20 ug/ml, 24 h, + PLGA = premixed with 100 μg/ml cPLGA
# [8] = mean of donors 28065-28068, 20 ug/ml, 24 h, + PLGA = premixed with 100 μg/ml cPLGA
# [9] = mean of donors 28185-28188, Table 15
substance,measurement,setting,value
5′-TCGTCGA-3′-HEG-5′-TCGTCGA-3′-HEG-5′-TCGTCGA-3′ [Compound C-21],"B cell proliferation, in words",CD19+ B cells; 48 h plus 8 h 3H-thymidine pulse,cause B cells to proliferate
same,cpm1,CD19+ B cells; [1],28467 cpm
same,cpm2,CD19+ B cells; [1],16074 cpm
same,cpm3,CD19+ B cells; [1],19258 cpm
same,mean cpm,"CD19+ B cells; B cells, Donor 146 mean, Experiment A",21266 cpm
same,cpm1,CD19+ B cells; [2],17604 cpm
same,cpm2,CD19+ B cells; [2],18851 cpm
same,cpm3,CD19+ B cells; [2],19887 cpm
same,mean cpm,"CD19+ B cells; B cells, Donor 147 mean, Experiment A",18781 cpm
same,mean of both,"CD19+ B cells; B cells, mean of Donors 146 and 147, Experiment A",20024 cpm
same,IFN-α,"human PBMCs; Table 9, donor 28089",56 pg/mL
same,IFN-γ,"human PBMCs; Table 9, donor 28089",61 pg/mL
same,IFN-α,"human PBMCs; Table 9, donor 28090",157 pg/mL
same,IFN-γ,"human PBMCs; Table 9, donor 28090",68 pg/mL
same,IFN-α,"human PBMCs; Table 9, donor 28098",286 pg/mL
same,IFN-γ,"human PBMCs; Table 9, donor 28098",218 pg/mL
same,IFN-α,"human PBMCs; Table 9, donor 28099",466 pg/mL
same,IFN-γ,"human PBMCs; Table 9, donor 28099",124 pg/mL
same,IFN-α mean,"human PBMCs; Table 9, mean of donors",241 pg/mL
same,IFN-γ mean,"human PBMCs; Table 9, mean of donors",118 pg/mL
same,IFN-α,"human PBMCs; Table 10, donor 28042",57 pg/mL
same,IFN-γ,"human PBMCs; Table 10, donor 28042",790 pg/mL
same,IFN-α,"human PBMCs; Table 10, donor 28043",72 pg/mL
same,IFN-γ,"human PBMCs; Table 10, donor 28043",1519 pg/mL
same,IFN-α,"human PBMCs; Table 10, donor 28044",79 pg/mL
same,IFN-γ,"human PBMCs; Table 10, donor 28044",1198 pg/mL
same,IFN-α,"human PBMCs; Table 10, donor 28045",15 pg/mL
same,IFN-γ,"human PBMCs; Table 10, donor 28045",177 pg/mL
same,IFN-α mean,"human PBMCs; Table 10, mean of donors",56 pg/mL
same,IFN-γ mean,"human PBMCs; Table 10, mean of donors",921 pg/mL
same,IFN-α,"human PBMCs; Table 11, donor 28042",146 pg/mL
same,IFN-γ,"human PBMCs; Table 11, donor 28042",572 pg/mL
same,IFN-α,"human PBMCs; Table 11, donor 28043",94 pg/mL
same,IFN-γ,"human PBMCs; Table 11, donor 28043",460 pg/mL
same,IFN-α,"human PBMCs; Table 11, donor 28044",191 pg/mL
same,IFN-γ,"human PBMCs; Table 11, donor 28044",4000 pg/mL
same,IFN-α,"human PBMCs; Table 11, donor 28045",349 pg/mL
same,IFN-γ,"human PBMCs; Table 11, donor 28045",1644 pg/mL
same,IFN-α mean,"human PBMCs; Table 11, mean of donors",195 pg/mL
same,IFN-γ mean,"human PBMCs; Table 11, mean of donors",1669 pg/mL
same,IFN-α,"human PBMCs; Table 24, donor 28234",16 pg/mL
same,IFN-γ,"human PBMCs; Table 24, donor 28234",4 pg/mL
same,IFN-α,"human PBMCs; Table 24, donor 28235",16 pg/mL
same,IFN-γ,"human PBMCs; Table 24, donor 28235",107 pg/mL
same,IFN-α,"human PBMCs; Table 24, donor 28236",73 pg/mL
same,IFN-γ,"human PBMCs; Table 24, donor 28236",308 pg/mL
same,IFN-α,"human PBMCs; Table 24, donor 28237",678 pg/mL
same,IFN-γ,"human PBMCs; Table 24, donor 28237",1645 pg/mL
same,IFN-α mean,human PBMCs; [3],196 pg/mL
same,IFN-γ mean,human PBMCs; [3],516 pg/mL
same,IFN-a,"human PBMCs; Table 25, donor 28250",31 pg/mL
same,IFN-g,"human PBMCs; Table 25, donor 28250, polynucleotides/spacers at amounts equivalent to the CIC, spacers alone 9 uM",122 pg/mL
same,IFN-a,"human PBMCs; Table 25, donor 28251",69 pg/mL
same,IFN-g,"human PBMCs; Table 25, donor 28251",51 pg/mL
same,IFN-a,"human PBMCs; Table 25, donor 28252",41 pg/mL
same,IFN-g,"human PBMCs; Table 25, donor 28252",155 pg/mL
same,IFN-a,"human PBMCs; Table 25, donor 28253",264 pg/mL
same,IFN-g,"human PBMCs; Table 25, donor 28253",203 pg/mL
same,IFN-a mean,human PBMCs; [4],101 pg/mL
same,IFN-g mean,human PBMCs; [4],133 pg/mL
same,IFN-γ (pg/ml) 28065,"human PBMCs; donor 28065 (high background), 20 ug/ml, 24 h, + PLGA = premixed with 100 μg/ml cPLGA, 1000 = outside assay limits",653 pg/mL
same,IFN-α (pg/ml) 28065,"human PBMCs; donor 28065, 20 ug/ml, 24 h, + PLGA = premixed with 100 μg/ml cPLGA",227 pg/mL
same,IFN-α (pg/ml) 28066,human PBMCs; [5],24 pg/mL
same,IFN-γ (pg/ml) 28066,human PBMCs; [5],16 pg/mL
same,IFN-α (pg/ml) 28067,human PBMCs; [6],183 pg/mL
same,IFN-γ (pg/ml) 28067,human PBMCs; [6],24 pg/mL
same,IFN-α (pg/ml) 28068,human PBMCs; [7],769 pg/mL
same,IFN-γ (pg/ml) 28068,human PBMCs; [7],960 pg/mL
same,IFN-a,"human PBMCs; donor 28185, Table 15",443 pg/mL
same,IFN-g,"human PBMCs; donor 28185, Table 15",244 pg/mL
same,IFN-a,"human PBMCs; donor 28186, Table 15",64 pg/mL
same,IFN-g,"human PBMCs; donor 28186, Table 15",37 pg/mL
same,IFN-a,"human PBMCs; donor 28187, Table 15",1 pg/mL
same,IFN-g,"human PBMCs; donor 28187, Table 15",125 pg/mL
same,IFN-a,"human PBMCs; donor 28188, Table 15",4 pg/mL
same,IFN-g,"human PBMCs; donor 28188, Table 15",7 pg/mL
same,IFN-α (pg/ml) mean,human PBMCs; [8],300 pg/mL
same,IFN-γ (pg/ml) mean,human PBMCs; [8],413 pg/mL
same,IFN-a (pg/ml) mean,human PBMCs; [9],128 pg/mL
same,IFN-g (pg/ml) mean,human PBMCs; [9],103 pg/mL
same,IFN-a (pg/ml) ×2,"human PBMCs; mean ×2, Table 15",256 pg/mL
same,IFN-g (pg/ml) ×4,"human PBMCs; mean ×4, Table 15",413 pg/mL
same,"immunomodulatory activity (IFN-γ / IFN-α secretion), in words",human PBMCs; used alone (no cPLGA),more active than other CG-containing CICs
same,cpm1,"PBMCs; Donor 146, 2 μg/ml",30338 cpm
same,cpm2,"PBMCs; Donor 146, 2 μg/ml",22685 cpm
same,cpm3,"PBMCs; Donor 146, 2 μg/ml",22383 cpm
same,mean cpm,PBMCs; Donor 146 mean,25135 cpm
same,cpm1,"PBMCs; Donor 147, 2 μg/ml",28819 cpm
same,cpm2,"PBMCs; Donor 147, 2 μg/ml",530 cpm
same,cpm3,"PBMCs; Donor 147, 2 μg/ml",37088 cpm
same,mean cpm,PBMCs; Donor 147 mean,22146 cpm
same,mean of both,"PBMCs; mean of Donors 146 and 147, 2 μg/ml",23641 cpm
